Measurements taken from patent US20240174622A1, “COMPOUND AND RADIOACTIVE LABELING COMPOUND” (NIHON MEDI-PHYSICS CO., LTD., priority 2021, published 2024).

Key:
[1] = system: LNCaP tumor-transplanted mouse; assay: Internal radioactivity distribution using LNCaP tumor-transplanted mouse; type: in vivo
Method: (§1) The animal test was performed in compliance with the guidelines of Kyoto University Animal Experiment Committee. Male CB17/IcrJcl-Prkdc^scid mice were purchased from CLEA Japan, Inc. The animals were kept under 12 h/12 h, day/night cycle conditions and fed ad libitum with food and water. LNCaP cells (1.0×10^7 cells/mouse) or PC-3 cells (1.0×10^7 cells/mouse) were suspended in a mixture of PBS and Matrigel manufactured by Corning Life Sciences (1:1, 150 μL) and the suspension was subcutaneously transplanted to the right shoulder of mice under isoflurane anesthesia. Thereafter, the mice were kept for 40 to 60 days.
LNCaP or PC-3 tumor-implanted mice were administered saline solutions (185 kBq, 100 μL) of [^111In]In-PSMA-DA1 or [^111In]In-PSMA-DB from the tail vein (n=3 each). Mice were euthanized 1, 4, 24, 48, 96, and 192 hours after administration. Thereafter, blood and each organ were recovered, and the mass and radioactivity of the organs were measured.
The percentage (% ID) of the radioactivity amount to the administered radioactivity amount (injected dose) is shown as the value (% ID/g) divided by the blood mass or the organ mass (g).
LNCaP tumor-implanted mice prepared by the same method as in Example 1-1 were administered a saline solution (241 kBq/100 μL) of [^111In]In-PtDA from the tail vein (n=3). Mice were euthanized 1, 24, and 48 hours after administration. Thereafter, blood and each organ were recovered, and the mass and radioactivity of the organs were measured.
LNCaP tumor-implanted mice prepared by the same method as in Example 1-1 were administered a saline solution (259 kBq/100 μL each) of each of the radiolabeled compounds in Examples 3-1 to 3-3 or Comparative Examples 2-1 to 2-2 from the tail vein (n=2 to 3). Mice were euthanized 1, 4, 24, 48, 96, and 192 hours after administration. Thereafter, blood and each organ were recovered, and the mass and radioactivity of the organs were measured.
as §1, with “LNCaP cells (4.3×10^6 cells/mouse) or” for “LNCaP cells (1.0×10^7 cells/mouse) or”, “PC-3 cells (3.3×10^6 cells/mouse) were” for “PC-3 cells (1.0×10^7 cells/mouse) were”, “shoulder of CB17/IcrJcl-Prkdc^scid mice under” for “shoulder of mice under”
Mice were euthanized 1, 4, 24, 48, 96, and 192 hours after administration. Thereafter, blood and each organ were recovered, and the mass and radioactivity of the organs were measured.
The results are shown in Table 12 (Mean value±standard deviation, n=3).

[2] = biological target: human serum albumin (HSA) (Homo sapiens, UniProt P02768); assay: Evaluation of binding to albumin (HSA solution, PBS control); conditions: left to stand in HSA solution (45 mg/mL)
Method: Thereafter, the reaction liquids were added to a spin column (Sephadex G-100; manufactured by Cytiva), and centrifuged at 1500×g at 4° C. for 2 minutes. After separation, the radioactivity for each of the column and the eluate was measured with a gamma counter.
When a compound to be evaluated binds to albumin to form a composite, the compound passes through the column because of the increased molecular size.
As in Examples described above, PBS and human albumin were used to evaluate binding to albumin.
Thereafter, the reaction liquid was added to a spin column (Sephadex G-50; manufactured by Cytiva), and centrifuged at 1500×g at 4° C. for 2 minutes. After separation, the radioactivity of the column and the eluate was measured with a gamma counter.

Sequence of human serum albumin (HSA) (P02768 25-609): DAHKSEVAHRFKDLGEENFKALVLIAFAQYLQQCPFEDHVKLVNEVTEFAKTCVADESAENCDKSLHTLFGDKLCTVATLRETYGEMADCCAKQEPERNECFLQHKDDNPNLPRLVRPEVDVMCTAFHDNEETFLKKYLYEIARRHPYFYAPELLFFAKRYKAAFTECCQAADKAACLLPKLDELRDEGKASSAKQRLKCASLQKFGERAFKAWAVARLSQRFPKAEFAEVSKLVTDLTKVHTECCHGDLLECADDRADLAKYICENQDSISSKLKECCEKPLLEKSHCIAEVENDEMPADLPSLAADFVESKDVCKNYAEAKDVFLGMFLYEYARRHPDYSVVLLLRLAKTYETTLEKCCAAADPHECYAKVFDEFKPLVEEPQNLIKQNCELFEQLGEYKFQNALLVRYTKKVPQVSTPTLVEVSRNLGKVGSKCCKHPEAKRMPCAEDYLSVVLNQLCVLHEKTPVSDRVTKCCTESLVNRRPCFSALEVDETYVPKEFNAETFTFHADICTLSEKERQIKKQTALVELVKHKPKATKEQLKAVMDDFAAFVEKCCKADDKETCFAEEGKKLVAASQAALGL

Blood ([1]; 1 h after administration): 13.6 ± 0.68 % ID/g
Brain ([1]; 1 h after administration): 0.18 ± 0.00 % ID/g
Heart ([1]; 1 h after administration): 3.74 ± 0.04 % ID/g
Intestine ([1]; 1 h after administration): 1.22 ± 0.30 % ID/g
Kidney ([1]; 1 h after administration): 90.1 ± 5.81 % ID/g
LNCaP Tumor ([1]; 1 h after administration): 7.44 ± 0.18 % ID/g
Liver ([1]; 1 h after administration): 2.23 ± 0.34 % ID/g
Lung ([1]; 1 h after administration): 8.99 ± 1.68 % ID/g
Muscle ([1]; 1 h after administration): 1.09 ± 0.25 % ID/g
Pancreas ([1]; 1 h after administration): 1.61 ± 0.42 % ID/g
Spleen ([1]; 1 h after administration): 16.9 ± 2.52 % ID/g
Stomach (% ID) ([1]; 1 h after administration): 0.23 ± 0.06 % ID
Blood ([1]; 4 h after administration): 5.73 ± 0.26 % ID/g
Brain ([1]; 4 h after administration): 0.12 ± 0.01 % ID/g
Heart ([1]; 4 h after administration): 1.78 ± 0.15 % ID/g
Intestine ([1]; 4 h after administration): 1.05 ± 0.29 % ID/g
Kidney ([1]; 4 h after administration): 126 ± 17.6 % ID/g
LNCaP Tumor ([1]; 4 h after administration): 8.57 ± 0.61 % ID/g
Liver ([1]; 4 h after administration): 1.29 ± 0.02 % ID/g
Lung ([1]; 4 h after administration): 4.14 ± 0.61 % ID/g
Muscle ([1]; 4 h after administration): 0.61 ± 0.11 % ID/g
Pancreas ([1]; 4 h after administration): 0.82 ± 0.05 % ID/g
Spleen ([1]; 4 h after administration): 8.16 ± 3.89 % ID/g
Stomach (% ID) ([1]; 4 h after administration): 0.29 ± 0.18 % ID
Blood ([1]; 24 h after administration): 2.48 ± 0.07 % ID/g
Brain ([1]; 24 h after administration): 0.08 ± 0.01 % ID/g
Heart ([1]; 24 h after administration): 0.79 ± 0.08 % ID/g
Intestine ([1]; 24 h after administration): 0.68 ± 0.11 % ID/g
Kidney ([1]; 24 h after administration): 101 ± 18.7 % ID/g
LNCaP Tumor ([1]; 24 h after administration): 8.61 ± 1.06 % ID/g
Liver ([1]; 24 h after administration): 1.00 ± 0.15 % ID/g
Lung ([1]; 24 h after administration): 2.26 ± 0.29 % ID/g
Muscle ([1]; 24 h after administration): 0.27 ± 0.11 % ID/g
Pancreas ([1]; 24 h after administration): 0.65 ± 0.05 % ID/g
Spleen ([1]; 24 h after administration): 2.67 ± 0.59 % ID/g
Stomach (% ID) ([1]; 24 h after administration): 0.13 ± 0.06 % ID
Blood ([1]; 48 h after administration): 0.20 ± 0.02 % ID/g
Brain ([1]; 48 h after administration): 0.03 ± 0.00 % ID/g
Heart ([1]; 48 h after administration): 0.14 ± 0.03 % ID/g
Intestine ([1]; 48 h after administration): 0.23 ± 0.05 % ID/g
Kidney ([1]; 48 h after administration): 11.7 ± 3.83 % ID/g
LNCaP Tumor ([1]; 48 h after administration): 4.92 ± 0.70 % ID/g
Liver ([1]; 48 h after administration): 0.58 ± 0.23 % ID/g
Lung ([1]; 48 h after administration): 0.40 ± 0.10 % ID/g
Muscle ([1]; 48 h after administration): 0.05 ± 0.04 % ID/g
Pancreas ([1]; 48 h after administration): 0.25 ± 0.09 % ID/g
Spleen ([1]; 48 h after administration): 0.83 ± 0.20 % ID/g
Stomach (% ID) ([1]; 48 h after administration): 0.06 ± 0.03 % ID
Blood ([1]; 96 h after administration): 0.13 ± 0.12 % ID/g
Brain ([1]; 96 h after administration): 0.03 ± 0.02 % ID/g
Heart ([1]; 96 h after administration): 0.14 ± 0.11 % ID/g
Intestine ([1]; 96 h after administration): 0.17 ± 0.10 % ID/g
Kidney ([1]; 96 h after administration): 9.71 ± 10.8 % ID/g
LNCaP Tumor ([1]; 96 h after administration): 3.35 ± 0.90 % ID/g
Liver ([1]; 96 h after administration): 1.30 ± 1.30 % ID/g
Lung ([1]; 96 h after administration): 0.36 ± 0.24 % ID/g
Muscle ([1]; 96 h after administration): 0.03 ± 0.02 % ID/g
Pancreas ([1]; 96 h after administration): 0.18 ± 0.12 % ID/g
Spleen ([1]; 96 h after administration): 0.47 ± 0.23 % ID/g
Stomach (% ID) ([1]; 96 h after administration): 0.03 ± 0.01 % ID
Blood ([1]; 192 h after administration): 0.02 ± 0.02 % ID/g
Brain ([1]; 192 h after administration): 0.02 ± 0.00 % ID/g
Heart ([1]; 192 h after administration): 0.22 ± 0.10 % ID/g
Intestine ([1]; 192 h after administration): 0.10 ± 0.05 % ID/g
Kidney ([1]; 192 h after administration): 1.83 ± 0.67 % ID/g
LNCaP Tumor ([1]; 192 h after administration): 5.16 ± 0.23 % ID/g
Liver ([1]; 192 h after administration): 0.64 ± 0.24 % ID/g
Lung ([1]; 192 h after administration): 0.29 ± 0.07 % ID/g
Muscle ([1]; 192 h after administration): 0.08 ± 0.00 % ID/g
Pancreas ([1]; 192 h after administration): 0.29 ± 0.11 % ID/g
Spleen ([1]; 192 h after administration): 0.88 ± 0.34 % ID/g
Stomach (% ID) ([1]; 192 h after administration): 0.02 ± 0.01 % ID
radioactivity in the eluate (in words) [2]: significantly higher
Structure (SMILES): O=C([O-])CN(CCN(CCc1ccc(NC(=O)[C@H](CCCCNC(=O)CCC(=O)NCCCC[C@H](NC(=O)N[C@@H](CCC(=O)O)C(=O)O)C(=O)O)NC(=O)CCCc2ccc(I)cc2)cc1)CCN(CC(=O)[O-])Cc1cccc(C(=O)[O-])n1)Cc1cccc(C(=O)[O-])n1.[111In+3] [[^111In]In-Neunpa-2]
